Data on 19 compounds can be found in US11827657B2, “Boron containing pyrazole compounds, compositions comprising them, methods and uses thereof” (BOEHRINGER INGELHEIM ANIMAL HEALTH USA INC., priority 2020, dated 2023).

The target of the assay is JAK1 (Homo sapiens, UniProt P23458). The experiment in a line: Biochemical Kinase Assay (JAK), 33P-ATP filter-binding. Conditions: Biochemical Kinase Inhibition Assay; potency level of IC50; read-out: JAK1 (range). In outline: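 Radiometric filter-binding with 33P-ATP in pH 7.5 Hepes buffer with 10 mM MgCl2 and 1% DMSO. Compound preincubated with kinase and substrate 20 min at room temperature, reaction run 2 h at room temperature, spotted on P81 paper to give IC50.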
Chain of JAK1 (P23458 whole entry, species assumed): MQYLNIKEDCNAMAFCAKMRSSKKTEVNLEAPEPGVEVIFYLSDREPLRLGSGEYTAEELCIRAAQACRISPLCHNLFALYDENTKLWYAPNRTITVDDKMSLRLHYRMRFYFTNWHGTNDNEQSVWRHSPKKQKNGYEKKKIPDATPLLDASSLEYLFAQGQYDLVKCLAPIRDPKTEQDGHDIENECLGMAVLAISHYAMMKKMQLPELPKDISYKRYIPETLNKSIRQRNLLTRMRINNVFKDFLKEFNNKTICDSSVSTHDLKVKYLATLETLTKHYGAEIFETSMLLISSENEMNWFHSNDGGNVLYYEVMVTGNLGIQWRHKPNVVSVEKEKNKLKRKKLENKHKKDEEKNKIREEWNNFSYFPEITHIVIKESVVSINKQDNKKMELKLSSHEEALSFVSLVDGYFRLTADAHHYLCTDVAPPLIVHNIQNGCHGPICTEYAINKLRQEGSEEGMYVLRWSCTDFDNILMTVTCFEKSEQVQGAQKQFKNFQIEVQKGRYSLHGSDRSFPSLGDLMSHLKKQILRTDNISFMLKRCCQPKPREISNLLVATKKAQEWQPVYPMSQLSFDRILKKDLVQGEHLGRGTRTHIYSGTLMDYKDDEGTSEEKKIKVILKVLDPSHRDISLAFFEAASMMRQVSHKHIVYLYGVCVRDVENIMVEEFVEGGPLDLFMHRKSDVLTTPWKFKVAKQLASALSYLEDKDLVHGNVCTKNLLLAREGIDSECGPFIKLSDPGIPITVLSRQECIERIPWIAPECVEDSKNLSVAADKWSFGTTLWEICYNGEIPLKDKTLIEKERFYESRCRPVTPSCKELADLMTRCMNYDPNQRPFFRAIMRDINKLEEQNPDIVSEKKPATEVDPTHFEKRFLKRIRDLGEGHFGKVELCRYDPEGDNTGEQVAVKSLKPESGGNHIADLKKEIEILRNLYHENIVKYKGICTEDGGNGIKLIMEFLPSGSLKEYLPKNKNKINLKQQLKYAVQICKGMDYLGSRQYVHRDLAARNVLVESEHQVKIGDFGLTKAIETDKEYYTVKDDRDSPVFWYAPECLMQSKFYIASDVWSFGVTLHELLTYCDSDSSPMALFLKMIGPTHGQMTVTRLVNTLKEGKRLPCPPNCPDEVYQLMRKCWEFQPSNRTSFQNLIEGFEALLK
Take `N#C[C@@H]1CCOC[C@H]1n1cc(C(N)=O)c(Nc2cc3c(c(C4CC4)c2)OB(O)C=C3)n1` (single isomer, unassigned) [Example 55a, 1-[trans-4-cyanotetrahydro-2H-pyran-3-yl]-3-[(8-cyclopropyl-2-hydroxy-1,2-benzoxaborinin-6-yl)amino]pyrazole-4-carboxamide]: the IC50 was under 10 nM. As for `N#C[C@@H]1CCOC[C@H]1n1cc(C(N)=O)c(Nc2cc3c(c(C4CC4)c2)OB(O)C=C3)n1` (single isomer, unassigned) [Example 55b, 1-[trans-4-cyanotetrahydro-2H-pyran-3-yl]-3-[(8-cyclopropyl-2-hydroxy-1,2-benzoxaborinin-6-yl)amino]pyrazole-4-carboxamide], the IC50 is over 50 nM. `CC1=CB(O)Oc2ccc(Nc3nn(C4COCCC4C#N)cc3C(N)=O)cc21` (stereo not drawn) [Example 3, 1-[trans-4-cyanotetrahydro-2H-pyran-3-yl]-3-[(2-hydroxy-4-methyl-1,2-benzoxaborinin-6-yl)amino]pyrazole-4-carboxamide]: the IC50 is under 10 nM.

`Cc1cc(Nc2nn(C3COCCC3C#N)cc2C(N)=O)cc2c1B(O)OC2` (stereo not drawn) [Example 6, 1-(trans-4-cyanotetrahydro-2H-pyran-3-yl)-3-[(1-hydroxy-7-methyl-3H-2,1-benzoxaborol-5-yl)amino]pyrazole-4-carboxamide]: the IC50 is under 10 nM. The result for `N#CC1CCOCC1n1cc(C(N)=O)c(Nc2cc(Cl)c3c(c2)C=CB(O)O3)n1` (stereo not drawn) [Example 13, 3-((8-chloro-2-hydroxy-2H-benzo[e][1,2]oxaborinin-6-yl)amino)-1-(trans-4-cyanotetrahydro-2H-pyran-3-yl)-1H-pyrazole-4-carboxamide] reads under 10 nM. The result for `CC1=Cc2cc(Nc3nn(C4COCCC4C#N)cc3C(N)=O)cc(F)c2OB1O` (stereo not drawn) [Example 14, 1-(trans-4-cyanotetrahydro-2H-pyran-3-yl)-3-[(8-fluoro-2-hydroxy-3-methyl-1,2-benzoxaborinin-6-yl)amino]pyrazole-4-carboxamide] reads under 10 nM.

Take `N#CC1CCOCC1n1cc(C(N)=O)c(Nc2ccc3c(c2)B(O)OC3)n1` (stereo not drawn) [Example 16, 1-(trans-4-cyanotetrahydro-2H-pyran-3-yl)-3-((1-hydroxy-1,3-dihydrobenzo[c][1,2]oxaborol-6-yl)amino)-1H-pyrazole-4-carboxamide]: the IC50 is under 10 nM.

Regarding `CC1=C(C)c2cc(Nc3nn(C4COCCC4C#N)cc3C(N)=O)cc(C)c2OB1O` (stereo not drawn) [Example 23, 1-(trans-4-cyanotetrahydropyran-3-yl)-3-[(2-hydroxy-3,4,8-trimethyl-1,2-benzoxaborinin-6-yl)amino]pyrazole-4-carboxamide], the IC50 is under 10 nM. The result for `Cc1cc(Nc2nn(C3COCCC3C#N)cc2C(N)=O)cc2c1OB(O)C=C2` (stereo not drawn) [Example 27, 1-[trans-4-cyanotetrahydro-2H-pyran-3-yl]-3-[(2-hydroxy-8-methyl-1,2-benzoxaborinin-6-yl)amino]pyrazole-4-carboxamide] reads under 10 nM; that for `CC(C)C1=CB(O)Oc2ccc(Nc3nn(C4COCCC4C#N)cc3C(N)=O)cc21` (stereo not drawn) [Example 30, 1-[trans-4-cyanotetrahydro-2H-pyran-3-yl]-3-[(2-hydroxy-4-isopropyl-1,2-benzoxaborinin-6-yl)amino]pyrazole-4-carboxamide], under 10 nM.

On to `CC1(C)OB(O)c2cc(Nc3nn(C4COCCC4C#N)cc3C(N)=O)ccc21` (stereo not drawn) [Example 36, 1-[trans-4-cyanotetrahydro-2H-pyran-3-yl]-3-[(1-hydroxy-3,3-dimethyl-2,1-benzoxaborol-6-yl)amino]pyrazole-4-carboxamide], for which the IC50 is under 10 nM. The result for `N#CC1CCOCC1n1cc(C(N)=O)c(Nc2cc(F)c3c(c2)COB3O)n1` (stereo not drawn) [Example 38, 1-[trans-4-cyanotetrahydro-2H-pyran-3-yl]-3-[(7-fluoro-1-hydroxy-3H-2,1-benzoxaborol-5-yl)amino]pyrazole-4-carboxamide] reads under 10 nM. The result for `N#CC1CCOCC1n1cc(C(N)=O)c(Nc2ccc3c(c2)COB3O)n1` (stereo not drawn) [Example 41, 1-(trans-4-cyanotetrahydro-2H-pyran-3-yl)-3-((1-hydroxy-1,3-dihydrobenzo[c][1,2]oxaborol-5-yl)amino)-1H-pyrazole-4-carboxamide] reads under 10 nM. The value for `N#CC1CCOCC1n1cc(C(N)=O)c(Nc2ccc3c(c2)B(O)OCC3)n1` (stereo not drawn) [Example 42, 1-[trans-4-cyanotetrahydro-2H-pyran-3-yl]-3-[(1-hydroxy-3,4-dihydro-2,1-benzoxaborinin-7-yl)amino]pyrazole-4-carboxamide] was under 10 nM; that for `N#CC1CCOCC1n1cc(C(N)=O)c(Nc2ccc3c(c2)C(Cl)=CB(O)O3)n1` (stereo not drawn) [Example 43, 3-[(4-chloro-2-hydroxy-1,2-benzoxaborinin-6-yl)amino]-1-[trans-4-cyanotetrahydro-2H-pyran-3-yl]pyrazole-4-carboxamide] was under 10 nM; that for `N#CC1CCOCC1n1cc(C(N)=O)c(Nc2cc(F)c3c(c2)C=CB(O)O3)n1` (stereo not drawn) [Example 44, 1-[trans-4-cyanotetrahydro-2H-pyran-3-yl]-3-[(8-fluoro-2-hydroxy-1,2-benzoxaborinin-6-yl)amino]pyrazole-4-carboxamide] was under 10 nM. `CC(C)C1=Cc2cc(Nc3nn(C4COCCC4C#N)cc3C(N)=O)ccc2OB1O` (stereo not drawn) [Example 48, 1-(trans-4-cyanotetrahydro-2H-pyran-3-yl)-3-((2-hydroxy-3-isopropyl-2H-benzo[e][1,2]oxaborinin-6-yl)amino)-1H-pyrazole-4-carboxamide]: the IC50 is under 10 nM.

In the case of `N#CC1CCOCC1n1cc(C(N)=O)c(Nc2ccc3c(c2)C=CB(O)O3)n1` (stereo not drawn) [Example 51, 1-(trans-4-cyanotetrahydro-2H-pyran-3-yl)-3-[(2-hydroxy-1,2-benzoxaborinin-6-yl)amino]pyrazole-4-carboxamide], the IC50 is under 10 nM. With `N#CC1CCOCC1n1cc(C(N)=O)c(Nc2cc(Cl)c3c(c2)COB3O)n1` (stereo not drawn) [Example 52, 3-((7-chloro-1-hydroxy-1,3-dihydrobenzo[c][1,2]oxaborol-5-yl)amino)-1-(trans-4-cyanotetrahydro-2H-pyran-3-yl)-1H-pyrazole-4-carboxamide], the IC50 is under 10 nM.
